Assay results as given in US20160220582A1, “COMBINATION OF LUPEOL ACETATE AND CURCUMIN USED FOR THE TREATMENT OR PREVENTION OF ACTIVATED OSTEOCLAST PRECURSOR ASSOCIATED DISORDERS” (priority 2015, published 2016).

What was measured:
[1] = system: collagen-induced arthritis (CIA) mice; assay: Micro-CT bone density of femur in CIA mice; format: in vivo, DBA/1J mice; conditions: day 32, 39 and 43
Description: Micro-CT images were acquired from the Tri-Modality FLEX Triumph™ Pre-Clinical Imaging System (Gamma MedicaIdeas; Northridge, Calif.). The ROI was analyzed visually in three different slices: transverse, coronal, and sagittal. Individual ROI was used to create 3D representations of the bones of interest. For each specific bone ROI, the total number of pixels and mean pixel intensity across all slices were used to measure bone volume and density.

rheumatoid arthritis = conditions: mice; high doses (100 mg/kg, 12 days) necessary; US 20120177754; cited from earlier work
[2] = system: inflammatory condition induced by carrageenan; conditions: mice; Lucetti et al. 2010; cited from earlier work
[3] = system: collagen-induced arthritis (CIA) mice; assay: Ex vivo Western blotting of leg proteins of CIA mice; format: in vivo, DBA/1J mice; conditions: day 32
Description: The mice were sacrificed by cervical dislocation on the 32nd day of the animal experiment. The whole leg of mouse was removed, and the leg tissue was ground by adding an appropriate amount of lysis buffer (tissue protein extraction reagent, T-PER, Pierce Protein Biology Products, IL, USA), centrifuged at 15,000 rpm for 20 minutes, and the supernatant is taken as the sample for each group.
Mice were sacrificed at the peak of arthritis (on day 32), the protein extraction was isolated from legs of each group.

RAW 264.7 cells = assay: MTT cell viability assay; conditions: RAW264.7, 24 h; LA 10-80 μM, Cur 2.5-10 μM, 10 μM Cur+10-80 μM LA
Description: RAW 264.7 cells (a mouse macrophage cell line) were treated with different concentrations of lupeol acetate (10, 20, 40, 80 μM), curcumin (2.5, 5, 7.5, 10 μM) and combination (10 μM Cur+10 μM LA, 10 μM Cur+20 μM LA, 10 μM Cur+40 μM LA, 10 μM Cur+80 μM LA) for 24 h.
5×10^4 RAW264.7 cells/well were seeded in 96-well culture dishes, and treated with directed concentration of lupeol acetate (LA), curcumin (Cur) and combination for 24 hours after the 24-hr attachment. After removing the culture medium, 100 μl of 0.5 mg/ml MTT solution was added, and the cells were incubated at 37° C. for 4 hours. The mitochondrial enzyme (succinate dehydrogenase, SDH) in living cells will react with tetrazolium bromide in the MTT solution and form formazan blue-purple crystals. The MTT solution was removed and 200 μl DMSO was added to dissolve the blue-purple crystal, and then the O.D. (optical density) value was read under wavelength of 570 nm with an ELISA reader (TECAN Sunrise, USA). The relative cell viability is calculated by comparing the absorbance value of drug treated group with that of the control group (setting the value of control group as 100%).

[4] = Body weight tracking in CIA mice; format: in vivo
Description: Eight-week-old DBA/1J mice (purchased from Jackson lab, ME, USA and housed in the Animal center of National Yang Ming University under pathogen-free conditions according to the Institutional Animal Care and Committee guidelines) were used. 100 μl of arthritis-inducing adjuvant (prepared by mixing Complete Freund's Adjuvant (5 mg/ml heat-killed M. tuberculosis in incomplete Freund's Adjuvant) (Chondrex, WA, USA) with equal volume of bovine type II collagen (2 mg/ml solution in 0.05 M acetic acid) (Chondrex, WA, USA)) is injected into the dermis of tail (intra-dermal, i.d.) using a 30 G syringe; and a 50 μl second dose of same ingredients is injected in the same way at an interval of 21 days. The symptoms are produced at about six days after the second dose injection, with an induction rate of 100%. The CIA mice were established and treated with LA 25 mg/kg alone, LA 50 mg/kg alone, Cur 50 mg/kg alone and LA 25 mg/kg+Cur 50 mg/kg after second immunization once per day. Using animals treated with deionized distilled water (ddH2O) containing 0.1% dimethyl sulfoxide (DMSO, Sigma, USA) as the normal mice group. Signs of arthritis were monitored until Day 43.

NF-κB = assay: Ex vivo electrophoretic mobility shift assay (EMSA); format: in vivo, DBA/1J mice
Description: The LightShift Chemiluminescent EMSA kit (Pierce, Rockford, Ill., USA) was used in the analysis for NF-κB/DNA binding activity. Nuclear extracts were incubated with the biotin labeled DNA probes at room temperature for 20 minutes. The separated DNA/protein complexes from the free oligonucleotide on 10% polyacrylamide gel were transferred to a nylon membrane. The nylon membrane was immersed in ECL (Pierce, Rockford, Ill., USA) and reacted to emit cold light (luminescence), and then exposed to the film for the observation of NF-κB activity. Using IMAGE J software (National Institutes of Health), the obtained images were quantified to blackening degree; the blackening degree of the protein to be observed is divided by the value obtained in the control group to compare the differences of each group in the expression level of nuclear proteins.

[5] = system: collagen-induced arthritis (CIA) mice; assay: Histopathology of joints (H & E stain) in CIA mice; format: in vivo, DBA/1J mice; conditions: day 43
Description: To investigate the therapeutic efficacy of LA combined with curcumin on the histological damage in CIA mice, the mice were scarified on day 43 after arthritis induction. The joints of four limb of each mouse were excised and fixed with paraformaldehyde then embedded by paraffin and sectioned. Slides were stained with haematoxylin and eosin (H & E), and were observed under microscope.

[6] = system: collagen-induced arthritis (CIA) mice; assay: 18F-FDG PET of joints in CIA mice; format: in vivo, DBA/1J mice
Description: Apart from blood analysis, current clinical diagnosis will also use X-ray as an evaluation basis. Since X-ray image can only diagnose rheumatoid arthritis when the bone has been damaged severely at late stage, it could not be an effective evaluation tool. ^18F-FDG can be used as a tracer to observe and evaluate its accumulation during rheumatoid arthritis.
Repeated ^18F-FDG PET in vivo determination of disease severity in knee joints and paws on 20, 25, 32, 39 and 43 days after arthritis induction. Mice were anesthetized using 1-3% isoflurane and were intravenous injected with 0.5 mCi/100 μl (18.5 MBq) of ^18F-FDG 40 min before images acquisition. The emission scans were performed using an animal micro/PET scan (Tri-Modality FLEX Triumph™ Pre-Clinical Imaging System). All images were acquired for 40 min and reconstructed by software supplied by the manufacturer. The ROIs were selected, and the accumulation of ^18F-FDG of each ROI was further analyzed by Amide software.

arthritis = conditions: mice; cited from earlier work
[7] = clinical application; cited from earlier work

Row | Compound | bone density of femur vs CIA mice [1] | inhibiting inflammation and treatment of rheumatoid arthritis (rheumatoid arthritis) | inflammatory condition induced by carrageenan [2] | arthritis-related proteins ([3]; LA25 (25 mg/kg)) | arthritis-related proteins ([3]; LA50 (50 mg/kg)) | cytotoxic effects, cell viability (MTT) (RAW 264.7 cells) | tolerability / general toxicity ([4]; CIA mice, throughout the experimental period) | activation of NF-κB (NF-κB; LA25 (25 mg/kg)) | activation of NF-κB (NF-κB; LA50 (50 mg/kg)) | histopathology of joints: immune cell infiltration and cartilage destruction ([5]; 25 mg/kg) | histopathology of joints: immune cell infiltration and cartilage destruction ([5]; 50 mg/kg) | 18F-FDG accumulation in knee and tarsal joint / leg swelling ([6]; 25 mg/kg alone) | occurrence of inflammation and progression of arthritis (arthritis) | tolerability / general toxicity ([4]; mouse, in vivo) | bioavailability [7] | 18F-FDG accumulation in knee and tarsal joint / leg swelling ([6]; 50 mg/kg alone)
1 | lupeol acetate [LA] | significantly higher | significant therapeutic effect | effectively mitigate | improvement | improvement | no cytotoxic effects | well-tolerated | significantly suppressed | significantly suppressed | moderate immune cell infiltration and cartilage destruction | no inflammation and cartilage destruction | still have leg swelling on one side |  |  |  | 
2 | COc1cc(/C=C/C(=O)CC(=O)/C=C/c2ccc(O)c(OC)c2)ccc1O [Cur, curcumin] | significantly higher |  |  |  |  |  |  |  |  |  | moderate immune cell infiltration and cartilage destruction |  | inhibit | well-tolerated | poor bioavailability | still have leg swelling on one side
